How the values were obtained:
[1] = tested on: Citrobacter freundii (CFR) isolates; assay: MIC of compounds alone and combined with antibacterials, broth microdilution (CLSI); type: cell-based
Description: (§1) Method 2: MIC of Compounds Alone and Combined with Antibacterials Against Bacterial Isolates
(§2) Compounds of the present invention were assessed against genotyped bacterial strains (Table 3, 4) alone or in combination with an antibacterial (Table 2). […] Log phase bacterial suspensions were adjusted to a final density of 5.10^5 CFU/mL in cation-adjusted Mueller-Hinton broth (ca-MHB; Becton-Dickinson and Company) and added to each well (98 μL). Microplates were incubated for 16-20 h at 35° C. in ambient air. The MIC of the compounds was defined as the lowest concentration of said compounds that prevented bacterial growth as read by visual inspection. The MIC of ATB at each compound concentration was defined as the lowest concentration of ATB that prevented bacterial growth as read by visual inspection.

[2] = tested on: Morganella morganii (MMO) isolates; assay: as above; type: cell-based
Description: as §1, §2

`CC(C)(O/N=C(\C(=O)N[C@@H]1C(=O)N2C(C(=O)[O-])=C(C[n+]3ccccc3)CS[C@H]12)c1csc(N)n1)C(=O)O` [CAZ, Ceftazidime] was tested, and the “MIC ATB in combination” value ([1]; CFR UFR10, AF2 @ 8 μg/mL) was “<=0.25 μg/mL”, the “MIC ATB in combination” value ([1]; CFR UFR10, AF3 @ 8 μg/mL) was under 0.25 µg/mL and the “MIC ATB in combination” value ([1]; CFR UFR11, AF2 @ 8 μg/mL) was 8 µg/mL. The “MIC ATB in combination” value ([1]; CFR UFR11, AF3 @ 8 μg/mL) was 4 µg/mL, the “MIC ATB in combination” value ([1]; CFR UFR37, AF2 @ 8 μg/mL) was 8 µg/mL and the “MIC ATB in combination” value ([1]; CFR UFR37, AF3 @ 8 μg/mL) was under 0.25 µg/mL. For the same compound, the “MIC ATB in combination” value ([1]; CFR UFR83, AF2 @ 8 μg/mL) was over 128 µg/mL, the “MIC ATB in combination” value ([1]; CFR UFR83, AF3 @ 8 μg/mL) was over 128 µg/mL and the “MIC ATB in combination” value ([1]; CFR UFR146, AF2 @ 8 μg/mL) was 2 µg/mL. For the same compound, the “MIC ATB in combination” value ([1]; CFR UFR146, AF3 @ 8 μg/mL) was 1 µg/mL, the “MIC ATB in combination” value ([1]; CFR UFR248, AF2 @ 8 μg/mL) was under 0.25 µg/mL and the “MIC ATB in combination” value ([1]; CFR UFR248, AF3 @ 8 μg/mL) was under 0.25 µg/mL. For the same compound, the “MIC ATB in combination” value ([1]; CFR UFR249, AF2 @ 8 μg/mL) was “<=0.25 μg/mL”, the “MIC ATB in combination” value ([1]; CFR UFR249, AF3 @ 8 μg/mL) was under 0.25 µg/mL and the “MIC ATB in combination” value ([1]; CFR UFR250, AF2 @ 8 μg/mL) was “<=0.25 μg/mL”. The “MIC ATB in combination” value ([1]; CFR UFR250, AF3 @ 8 μg/mL) was under 0.25 µg/mL, the MIC ([1]; strain CFR UFR11, genotype TEM-1, OXA-1, OXA-48) was 8 µg/mL and the MIC ([1]; strain CFR UFR37, genotype TEM-1, CTX-M-15, NDM-1) was over 128 µg/mL. It also gave an MIC ([1]; strain CFR UFR83, genotype TEM-3, AmpC) of over 128 µg/mL, an MIC ([1]; strain CFR UFR146, genotype TEM-1, KPC-2) of 32 µg/mL and an MIC ([1]; strain CFR UFR147, genotype TEM-1, CTX-M-15, OXA-1, OXA-181, OXA-10, OXA-9, NDM-1, ArmA, dfrA12, aadA2, antibiotic alone) of over 128 µg/mL. For the same compound, the “MIC ATB in combination” value ([1]; strain CFR UFR147, with AF2 @ 8 μg/mL) was under 0.25 µg/mL, the “MIC ATB in combination” value ([1]; strain CFR UFR147, with AF3 @ 8 μg/mL) was under 0.25 µg/mL and the MIC ([1]; strain CFR UFR148, genotype TEM-1, TEM-2, CTX-M-15, NDM-1, antibiotic alone) was over 128 µg/mL. For the same compound, the “MIC ATB in combination” value ([1]; strain CFR UFR148, with AF2 @ 8 μg/mL) was under 0.25 µg/mL, the “MIC ATB in combination” value ([1]; strain CFR UFR148, with AF3 @ 8 μg/mL) was under 0.25 µg/mL and the MIC ([1]; strain CFR UFR249, genotype TEM-1, CTX-M-15) was 64 µg/mL. The “MIC ATB in combination” value ([1]; strain CFR UFR251, with AF2 @ 8 μg/mL) was 0.5 µg/mL, the “MIC ATB in combination” value ([1]; strain CFR UFR251, with AF3 @ 8 μg/mL) was under 0.25 µg/mL and the MIC ([1]; strain CFR UFR252, genotype VIM-2, antibiotic alone) was 64 µg/mL. For the same compound, the “MIC ATB in combination” value ([1]; strain CFR UFR252, with AF2 @ 8 μg/mL) was 8 µg/mL, the “MIC ATB in combination” value ([1]; strain CFR UFR252, with AF3 @ 8 μg/mL) was 16 µg/mL and the MIC ([1]; strain CFR UFR253, genotype TEM-1, SHV-12, OXA-48) was over 128 µg/mL. For the same compound, the “MIC ATB in combination” value ([1]; strain CFR UFR253, with AF2 @ 8 μg/mL) was 8 µg/mL, the “MIC ATB in combination” value ([1]; strain CFR UFR253, with AF3 @ 8 μg/mL) was 4 µg/mL and the “MIC ATB in combination” value ([1]; strain CFR UFR254, with AF2 @ 8 μg/mL) was under 0.25 µg/mL. The “MIC ATB in combination” value ([1]; strain CFR UFR254, with AF3 @ 8 μg/mL) was 0.5 µg/mL, the “MIC ATB in combination” value ([2]; MMO 200321, AF2 @ 8 μg/mL) was “<=0.25 μg/mL” and the “MIC ATB in combination” value ([2]; MMO 200321, AF3 @ 8 μg/mL) was “<=0.25 μg/mL”. The “MIC ATB in combination” value ([2]; MMO UFR144, AF2 @ 8 μg/mL) was “<=0.25 μg/mL”, the “MIC ATB in combination” value ([2]; MMO UFR144, AF3 @ 8 μg/mL) was “<=0.25 μg/mL” and the “MIC ATB in combination” value ([2]; MMO UFR240, AF2 @ 8 μg/mL) was “<=0.25 μg/mL”. For the same compound, the “MIC ATB in combination” value ([2]; MMO UFR240, AF3 @ 8 μg/mL) was “<=0.25 μg/mL”, the “MIC ATB in combination” value ([2]; MMO UFR241, AF2 @ 8 μg/mL) was “<=0.25 μg/mL” and the “MIC ATB in combination” value ([2]; MMO UFR241, AF3 @ 8 μg/mL) was “<=0.25 μg/mL”. For the same compound, the “MIC ATB in combination” value ([2]; MMO UFR242, AF2 @ 8 μg/mL) was “<=0.25 μg/mL”, the “MIC ATB in combination” value ([2]; MMO UFR242, AF3 @ 8 μg/mL) was “<=0.25 μg/mL” and the “MIC ATB in combination” value ([2]; MMO UFR243, AF2 @ 8 μg/mL) was “<=0.25 μg/mL”. The “MIC ATB in combination” value ([2]; MMO UFR243, AF3 @ 8 μg/mL) was “<=0.25 μg/mL”, the “MIC ATB in combination” value ([2]; MMO UFR244, AF2 @ 8 μg/mL) was “<=0.25 μg/mL” and the “MIC ATB in combination” value ([2]; MMO UFR244, AF3 @ 8 μg/mL) was “<=0.25 μg/mL”. The “MIC ATB in combination” value ([2]; MMO UFR245, AF2 @ 8 μg/mL) was “<=0.25 μg/mL”, the “MIC ATB in combination” value ([2]; MMO UFR245, AF3 @ 8 μg/mL) was “<=0.25 μg/mL” and the “MIC ATB in combination” value ([2]; MMO UFR246, AF2 @ 8 μg/mL) was “<=0.25 μg/mL”. For the same compound, the “MIC ATB in combination” value ([2]; MMO UFR246, AF3 @ 8 μg/mL) was “<=0.25 μg/mL”, the “MIC ATB in combination” value ([2]; MMO UFR247, AF2 @ 8 μg/mL) was “<=0.25 μg/mL” and the “MIC ATB in combination” value ([2]; MMO UFR247, AF3 @ 8 μg/mL) was “<=0.25 μg/mL”. For the same compound, the MIC ([2]; strain MMO 200321, genotype TEM-1, CTX-M-15, OXA-1) was 16 µg/mL, the MIC ([2]; strain MMO UFR144, genotype TEM-1, CTX-M-15) was 8 µg/mL and the “MIC ATB in combination” value ([2]; strain MMO UFR145, with AF2 @ 8 μg/mL) was over 128 µg/mL. The “MIC ATB in combination” value ([2]; strain MMO UFR145, with AF3 @ 8 μg/mL) was over 128 µg/mL, the MIC ([2]; strain MMO UFR240, genotype CTX-M-9) was 0.5 µg/mL and the MIC ([2]; strain MMO UFR241, genotype TEM-1, CTX-M-15) was 8 µg/mL. The MIC ([2]; strain MMO UFR242, genotype TEM-52) was 32 µg/mL, the MIC ([2]; strain MMO UFR243, genotype DHA-1) was 1 µg/mL and the MIC ([2]; strain MMO UFR244, genotype DHA-1) was 0.5 µg/mL.
